In ChEMBL document CHEMBL1145147, “Cytotoxic neolignans: an SAR study” (Bioorg Med Chem Lett, 2005) one finds IC50 data, which are given here for twelve compounds.

Usually IC50 stands for the point on the concentration scale where inhibition reaches its midpoint.

For the assay, the system named is HepG2. Description: Cytotoxicity of compound against human liver tumor cell line (Hep-G2) was determined. It counts as functional, cell-based.

SMILES strings stand for the structures. Some results are limits rather than exact numbers.

Consider `C/C=C/c1ccc(O)c(-c2cc(/C=C/C)ccc2O)c1`, for which it took 38 µM to reach half-maximal inhibition (IC50).

The compound `C=CCc1cc(O)c(O)c(-c2cc(CC=C)cc(O)c2O)c1` displayed a concentration for half-maximal inhibition (IC50) of 104 µM.

As for `C=CCc1cccc(-c2cccc(CC=C)c2O)c1O`, the concentration for half-maximal inhibition (IC50) was 42.1 µM.

Take `C=CCc1cc(OC)c(O)c(-c2cc(CC=C)cc(OC)c2O)c1`: 117 µM corresponded to half-maximal inhibition (IC50).

For the compound `C=CCc1ccc(OC)c(-c2cc(CC=C)ccc2OC)c1`, the IC50 was > 200 µM.

Turning to `Oc1ccccc1-c1ccccc1O`, the half-maximal inhibitory concentration (IC50) was > 200 µM.

`CCCc1ccc(O)c(-c2cc(CCC)ccc2O)c1`: half-maximal inhibition (IC50) was put at 23.4 µM.

`CCCc1ccc(O)c(-c2ccc(O)c(CCC)c2)c1` displayed a half-maximal inhibitory concentration (IC50) of 13.1 µM.

In the case of `C=CCc1ccc(O)cc1` [CHAVICOL], the IC50 was > 200 µM.

Regarding `C=CCc1ccc(O)c(-c2ccc(O)c(CC=C)c2)c1` [HONOKIOL], half-maximal inhibition (IC50) required 16.5 µM.

In turn, `C=CCc1ccc(Oc2cc(CC=C)ccc2O)cc1` [ISOMAGNOLOL] registered a half-maximal inhibitory concentration (IC50) of 51.8 µM.

`C=CCc1ccc(O)c(-c2cc(CC=C)ccc2O)c1` [MAGNOLOL] registered a 50% inhibitory concentration (IC50) of 32 µM.
